Source: patent US10689414B2 (Agios Pharmaceuticals, Inc., priority 2013, dated 2020)

What was measured:
HT1080 cells = test: Cellular assay, inhibition of 2-HG production in HT1080 cells; type: cell-based; settings: Homo sapiens, HT-1080, 48 h
Protocol: Cells (HT1080 or U87MG) are grown in T125 flasks in DMEM containing 10% FBS, 1× penicillin/streptomycin and 500 ug/mL G418 (present in U87MG cells only). They are harvested by trypsin and seeded into 96 well white bottom plates at a density of 5000 cell/well in 100 ul/well in DMEM with 10% FBS. […] Cells are incubated overnight at 37° C. in 5% CO2. The next day test compounds are made up at 2× the final concentration and 100 ul are added to each cell well. The final concentration of DMSO is 0.2% and the DMSO control wells are plated in row G. The plates are then placed in the incubator for 48 hours. […] The cell plate is placed back in the incubator for another 24 hours. At 72 hours post compound addition, 10 mL/plate of Promega Cell Titer Glo reagent is thawed and mixed. The cell plate is removed from the incubator and allowed to equilibrate to room temperature. Then 100 ul of Promega Cell Titer Glo reagent is added to each well of media. The cell plate is then placed on an orbital shaker for 10 minutes and then allowed to sit at room temperature for 20 minutes. The plate is then read for luminescence with an integration time of 500 ms.

U87MG cells = test: Cellular assay, inhibition of 2-HG production in U87MG cells; type: cell-based
In short: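 HT1080 or U87MG cells (U87MG kept with 500 ug/mL G418) seeded at 5000 cells/well and treated with compound at 0.2% final DMSO. Incubated 48 h at 37 °C. 2-HG inhibition determined by LC-MS. Viability read by CellTiter-Glo luminescence at 72 h post-dose.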

IDH1 R132C = IDH1 R132C (Homo sapiens (Human), UniProt O75874, R132C); test: In vitro NADPH depletion assay for IDH1m R132C inhibitors; type: biochemical; settings: IDH1 R132C enzyme, read-out: IDH R132C IC50
Chain of IDH1 R132C (O75874 whole entry R132C): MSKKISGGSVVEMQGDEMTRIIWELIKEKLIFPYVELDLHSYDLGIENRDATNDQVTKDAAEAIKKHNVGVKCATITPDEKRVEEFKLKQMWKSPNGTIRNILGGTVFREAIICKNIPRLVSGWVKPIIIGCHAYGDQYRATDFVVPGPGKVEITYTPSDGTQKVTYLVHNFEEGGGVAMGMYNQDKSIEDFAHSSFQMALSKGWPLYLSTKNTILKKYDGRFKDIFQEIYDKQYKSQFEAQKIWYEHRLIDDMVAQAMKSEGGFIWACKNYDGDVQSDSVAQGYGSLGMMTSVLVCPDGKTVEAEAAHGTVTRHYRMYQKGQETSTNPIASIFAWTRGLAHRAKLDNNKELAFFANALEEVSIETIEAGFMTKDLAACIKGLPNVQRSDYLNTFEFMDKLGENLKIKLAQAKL
Protocol: (§1) A test compound is prepared as 10 mM stock in DMSO and diluted to 50× final concentration in DMSO, for a 50 μl reaction mixture. IDH enzyme activity converting alpha-ketoglutarate to 2-hydroxyglutaric acid is measured using a NADPH depletion assay. In the assay the remaining cofactor is measured at the end of the reaction with the addition of a catalytic excess of diaphorase and resazurin, to generate a fluorescent signal in proportion to the amount of NADPH remaining. […] The reaction is started with the addition of 10 μl of Substrate Mix ([…], 5 mM alpha-ketoglutarate, in Assay Buffer) and the mixture is incubated for 90 minutes at room temperature.
The concentration of NADPH and alpha-ketoglutarate in the Substrate Buffer is 20 μM and 1 mM, respectively.

IDH1 R132H = IDH1 R132H (Homo sapiens (Human), UniProt O75874, R132H); test: In vitro NADPH depletion assay for IDH1m R132H inhibitors; type: biochemical; settings: IDH1 R132H enzyme, read-out: IDH R132H IC50
Chain of IDH1 R132H (O75874 whole entry R132H): as the sequence (O75874 whole entry R132C) above, with C132H counted along it
Protocol: as §1

[1] = inhibition of 2-HG production, U87MG cells, 48 hours

Compound	IC50 (HT1080 cells) [nM]	IC50 (U87MG cells; Homo sapiens, U-87 MG, 48 h) [nM]	IC50 (IDH1 R132C) [nM]	IC50 (IDH1 R132H) [nM]	IC50 (U87MG cells; [1]) [nM]
O=C(NC1CC(F)(F)C1)[C@H](c1ccccc1Cl)N(C(=O)[C@@H]1CCC(=O)N1c1cc(C(F)(F)F)ccn1)c1cccc(F)c1 [Compound 40]	100 to 500	100 to 500			
N#Cc1ccnc(N2C(=O)CC[C@H]2C(=O)N(c2cccc(F)c2)[C@H](C(=O)NC2CC(F)(F)C2)c2c(Cl)cccc2Cl)c1 (single isomer, unassigned) [Compound 63]	< 100	< 100			
COc1cccnc1N1C(=O)CC[C@H]1C(=O)N(c1cccc(F)c1)[C@H](C(=O)NC1CC(F)(F)C1)c1ccccc1Cl [Compound 17]	500 to 1000	1000 to 2000			
O=C(NC1CC(F)(F)C1)[C@H](c1ccccc1Cl)N(C(=O)[C@@H]1CCC(=O)N1c1ccc(Cl)cn1)c1cccc(F)c1 [Compound 48]	100 to 500	100 to 500			
(2S)—N-(1-(2-Chlorophenyl)-2-((3,3-difluorocyclobutyl)amino)-2-oxoethyl)-1-(4-cyanopyridin-2-yl)-N-(3-fluoro-5-(methylsulfonyl)phenyl)-5-oxopyrrolidine-2-carboxamide [Compound 110]			< 100	< 100	< 100
O=C(NC1CC(F)C1)[C@H](c1ccccc1Cl)N(C(=O)[C@@H]1CCC(=O)N1c1ncccn1)c1cccc(F)c1 (some centres unmarked) [Compound 49]	100 to 500	100 to 500			
N#Cc1ccnc(N2C(=O)OCC[C@H]2C(=O)N(c2cncc(F)c2)C(C(=O)NC2CC(F)(F)C2)c2ccccc2F)c1 (stereo in doubt) [Compound 302, (S)-3-(4-cyanopyridin-2-yl)-N—((R)-2-(3,3-difluorocyclobutylamino)-1-(2-fluorophenyl)-2-oxoethyl)-N-(5-fluoropyridin-3-yl)-2-oxo-1,3-oxazinane-4-carboxamide]	< 100			< 100	
(S)—N—((S)-1-(2-Chlorophenyl)-2-((3,3-difluorocyclobutyl)amino)-2-oxoethyl)-1-(4-cyanopyrimidin-2-yl)-N-(3-fluoro-5-(methylsulfonyl)phenyl)-5-oxopyrrolidine-2-carboxamide [Compound 109]			< 100	< 100	100 to 500
N#Cc1cccc(N2C(=O)OC[C@H]2C(=O)N(c2cccc3cn[nH]c23)[C@H](C(=O)NC2CCC(F)(F)CC2)c2ccccc2Cl)c1 [Compound 142, (S)—N—((S)-1-(2-Chlorophenyl)-2-(4,4-difluorocyclohexylamino)-2-oxoethyl)-3-(3-cyanophenyl)-N-(1H-indazol-7-yl)-2-oxooxazolidine-4-carboxamide]			< 100	< 100	< 100
N#Cc1ccnc(N2C(=O)OCC[C@H]2C(=O)N(c2cncc(F)c2)C(C(=O)NC2CC(F)(F)C2)c2ccccc2)c1 (stereo in doubt) [Compound 301, (S)-3-(4-cyanopyridin-2-yl)-N—((R)-2-((3,3-difluorocyclobutyl)amino)-2-oxo-1-phenylethyl)-N-(5-fluoropyridin-3-yl)-2-oxo-1,3-oxazinane-4-carboxamide]	< 100			< 100	
(S)—N—((S)-1-(2-Chlorophenyl)-2-((3,3-difluorocyclobutyl)amino)-2-oxoethyl)-1-(4-cyanopyridin-2-yl)-N-(1H-indazol-6-yl)-5-oxopyrrolidine-2-carboxamide [Compound 205]			< 100	< 100	< 100
O=C(NC1CC(F)(F)C1)[C@H](c1ccccc1Cl)N(C(=O)[C@@H]1COCC(=O)N1c1ncccn1)c1cccc(F)c1 [Compound 45]	100 to 500	100 to 500			
N#Cc1cccc(N(C(=O)[C@@H]2CCC(=O)N2c2nccc(C#N)n2)[C@H](C(=O)NC2CCC(F)(F)CC2)c2ccccc2Cl)c1 [Compound 178, (S)—N—((S)-1-(2-Chlorophenyl)-2-((4,4-difluorocyclohexyl)amino)-2-oxoethyl)-N-(3-cyanophenyl)-1-(4-cyanopyrimidin-2-yl)-5-oxopyrrolidine-2-carboxamide]	100 to 500	< 100			
Cc1cccc(N2C(=O)CC[C@H]2C(=O)N(c2cccc(F)c2)[C@H](C(=O)NC2CC(F)(F)C2)c2ccccc2Cl)n1 [Compound 28]	< 100				
Cc1cccnc1N1C(=O)CC[C@H]1C(=O)N(c1cccc(F)c1)[C@H](C(=O)NC1CC(F)(F)C1)c1ccccc1Cl [Compound 15]	100 to 500	100 to 500			
N#Cc1ccnc(N2C(=O)CC[C@H]2C(=O)N(c2cc(F)cc(F)c2)[C@H](C(=O)NC2CC(F)(F)C2)c2ccccc2F)c1 [Compound 208, (S)-1-(4-Cyanopyridin-2-yl)-N—((S)-2-(3,3-difluorocyclobutylamino)-1-(2-fluorphenyl)-2-oxoethyl)-N-(3,5-difluorophenyl)-5-oxopyrrolidine-2-carboxamide]		< 100	< 100	< 100	
(2S)—N-(1-(2-Chlorophenyl)-2-((4,4-difluorocyclohexyl)amino)-2-oxoethyl)-1-(4-cyanopyridin-2-yl)-N-(3-fluoro-5-(methylsulfonyl)phenyl)-5-oxopyrrolidine-2-carboxamide [Compound 105]			< 100	< 100	< 100
O=C(NC1CC(F)(F)C1)[C@H](c1ccccc1Cl)N(C(=O)[C@@H]1CCC(=O)N1c1ccccn1)c1cccc(F)c1 [Compound 5]		100 to 500	< 100	< 100	
O=C(NC1CC(F)(F)C1)[C@H](c1ccccc1Cl)N(C(=O)[C@@H]1CCC(=O)N1c1nccc2ccccc12)c1cccc(F)c1 [Compound 16]	100 to 500	500 to 1000			
(S)—N—((S)-1-(2-Chlorophenyl)-2-(3,3-difluorocyclobutylamino)-2-oxoethyl)-1-(3-cyano-phenyl)-N-(1H-indazol-7-yl)-5-oxopyrrolidine-2-carboxamide [Compound 186]			< 100	< 100	< 100
